Results published in patent US7781428B2 (Pfizer Inc., priority 2006, dated 2010).

Target: T1, mineralocorticoid receptor (MR) (Homo sapiens, UniProt P08235)
T1 construct: expressed in transfected cells; host or cells: Huh7 (human liver cells)
T1 sequence (P08235 726-964 limits assumed): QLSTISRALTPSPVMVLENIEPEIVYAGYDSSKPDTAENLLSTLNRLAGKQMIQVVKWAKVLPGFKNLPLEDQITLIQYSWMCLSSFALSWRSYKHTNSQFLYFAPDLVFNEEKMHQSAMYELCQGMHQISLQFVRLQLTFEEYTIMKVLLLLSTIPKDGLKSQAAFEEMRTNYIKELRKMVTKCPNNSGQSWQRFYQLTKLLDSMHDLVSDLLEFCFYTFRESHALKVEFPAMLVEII
Test: Cell-based Gal4 response element-controlled luciferase reporter assay (MR antagonism)
Conditions: Huh7 human liver cells transfected with Gal4 DBD-MR LBD fusion and luciferase reporter; block of agonist-induced activation; overnight incubation
From the text: Method 1: Cell-based Gal4 Response Element-controlled Luciferase Reporter Assay
An in vitro assay can be used to evaluate mineralocorticoid receptor (MR) antagonism by a test compound. […] An agonist of the receptor can bind to and activate the receptor LBD, which activate the expression of the Gal4 response element containing luciferase reporter gene. Antagonists can compete for binding to the receptor LBDs and decrease the transcription activity of the reporter gene. Measurement of luciferase activity allows quantitative determinations of the reporter transcription in the presence of either agonists or agonists and antagonists in combination. β-galactosidase activity, which is unaffected by ligand, is used to normalize the transfection efficiency in the cell population.
Huh7 cells were plated in RPMI1640+10% fetal bovine serum (Invitrogen Corporation, San Diego, Calif.), at 10,000 cells per well in 96-well tissue culture dishes for approximately 24 hours. Cells were then transfected using FuGENE™ 6 Transfection Reagent according to manufacturers' instructions (Roche Molecular Biochemicals, Indianapolis, Ind.). Approximately 20 hours after transfection, media were removed. Cells were washed once with PBS and treated (n=6/group) with agonist for each receptor (all chemicals from Sigma, St. Louis, Mo.), and with compounds. Agonist concentrations represent 70-80% of full activation of each receptor.
Compounds were dissolved in DMSO at 10 mM and diluted to final concentrations in phenol red-free media that contained 10% charcoal- and dextran-stripped serum (Life Technologies, Gathersburg, Md.). Following overnight incubation (18-20 hours) with compounds, the medium was removed and replaced with 100 μL per well of PBS and 100 μL of Steady-Glo™ lysis buffer with luciferase substrate (Promega Corporation, Madison, Wis.). After a 30-minute incubation to completely lyse the cells, 100 μL of the lysate was transferred to a black, Dynatech Microfluor assay plates (Dynex Corporation, Chantilly, Va.) to measure luciferase activity. The plate was sealed with TopSeal self-adhesive film, dark-adapted for 5 minutes, then counted in a TopCount Plate Reader (Packard Instrument Company, Meriden, Conn.) in single photon counting mode. The remaining lysate was used for determination of β-galactosidase activity. In a clear 96-well assay plate, 100 μL of cell lysate was added to 100 μL β-galactosidase assay buffer per well. The assay buffer consisted of 60 mM Na2HPO4, 40 mM NaH2PO4, 10 mM KCl, 1 mM MgSO4, 50 mM β-mercaptoethanol, and 2.5 mg/mL ONPG, the latter two reagents were added just prior to assay (all chemicals from Sigma). The reaction was allowed to proceed until a distinct yellow color developed. Reactions were stopped by the addition of 100 μL per well 1 M Na2CO3 and plates were read at 420 nm in Victor-2 (Perkin Elmer Life Sciences, Boston, Mass.). Values (relative luciferase activity) for each sample were expressed as a ratio of luciferase activity to OD420β-galactosidase activity measured in arbitrary units for each well. […] “b” is the slope, “c” is the IC50 or EC50. “x” is the concentration of the compound and “y” the activity at that concentration.

| SMILES | IC50 [µM] |
| --- | --- |
| Cc1cc(N2N=C3c4ccc(O)cc4CC[C@H]3[C@H]2c2ccc(F)cc2)ccc1C#N [Example 82, 4-((3S,3aS)-3-(4-fluorophenyl)-7-hydroxy-3,3a,4,5-tetrahydrobenzo[g]indazol-2-yl)-2-methylbenzonitrile] | > 1 |
| N#Cc1ccc(N2N=C3c4ccc(C(=O)O)cc4CCC3C2C2=CCCC2)cc1Cl (racemic) [Example 42, 2-(3-chloro-4-cyanophenyl)-3-cyclopentenyl-3,3a,4,5-tetrahydro-2H-benzo[g]indazole-7-carboxylic acid] | 0.015 |
| Cc1ncc(C2C3CCc4cc(C(=O)NCCS(C)(=O)=O)ccc4C3=NN2c2ccc(C#N)c(Cl)c2)s1 (stereo not drawn) [Example 118, 2-(3-chloro-4-cyanophenyl)-N-[2-(methylsulfonyl)ethyl]-3-(2-methyl-1,3-thiazol-5-yl)-3,3a,4,5-tetrahydro-2H-benzo[g]indazole-7-carboxamide] | 0.019 |
| CC(=O)Nc1ccc2c(c1)CCC1C2=NN(c2ccc(C#N)c(Cl)c2)C1C1CCCC1 (stereo not drawn) [Example 91, N-(-2-(3-chloro-4-cyanophenyl)-3-cyclopentyl-3,3a,4,5-tetrahydro-2H-benzo[g]indazol-7-yl)acetamide] | 0.005 |
| N#Cc1ccc(N2N=C3c4ccc(C(=O)O)cc4CC[C@H]3[C@H]2c2ccc(F)cc2)cc1Cl [Example 4, (3S,3aS)-2-(3-chloro-4-cyanophenyl)-3-(4-fluorophenyl)-3,3a,4,5-tetrahydro-2H-benzo[g]indazole-7-carboxylic acid] | 3.5 |
| N#Cc1ccc(N2N=C3c4ccc(C(=O)O)cc4CC[C@@H]3[C@@H]2c2ccc(F)cc2)cc1Cl [Example 3, (3R,3aR)-2-(3-chloro-4-cyanophenyl)-3-(4-fluorophenyl)-3,3a,4,5-tetrahydro-2H-benzo[g]indazole-7-carboxylic acid] | 0.0407 |
| N#Cc1ccc(N2N=C3c4ccc(OS(=O)(=O)C(F)(F)F)cc4OCC3C2c2ccc(F)cc2)cc1Cl (racemic) [Example 92, 2-(3-chloro-4-cyanophenyl)-3-(4-fluorophenyl)-2,3,3a,4-tetrahydrochromeno[4,3-c]pyrazol-7-yl trifluoromethanesulfonate] | > 1 |
| N#Cc1ccc(N2N=C3c4ccc(C(=O)O)cc4CCC3C2C2CCCC2)cc1OCc1ccccc1 (racemic) [Example 31, 2-(3-(benzyloxy)-4-cyanophenyl)-3-cyclopentyl-3,3a,4,5-tetrahydro-2H-benzo[g]indazole-7-carboxylic acid] | 0.488 |
| N#Cc1ccc(N2N=C3c4ccc(C(=O)NCC(=O)NCC(=O)O)cc4CC[C@H]3[C@@H]2c2ccc(F)cc2)cc1Cl (racemic) [Example 108, (±)-2-(2-((3RS,3aSR)-2-(3-chloro-4-cyanophenyl)-3-(4-fluorophenyl)-3,3a,4,5-tetrahydro-2H-benzo[g]indazole-7-carboxamido)acetamido)acetic acid] | > 1 |
| N#Cc1ccc(N2N=C3c4ccc(C(=O)O)cc4OCC3C2C2CCCC2)cc1Cl (racemic) [Example 67, 2-(3-chloro-4-cyanophenyl)-3-cyclopentyl-2,3,3a,4-tetrahydrochromeno[4,3-c]pyrazole-7-carboxylic acid] | 0.146 |
| N#Cc1ccc(N2N=C3c4ccc(O)cc4CC[C@H]3[C@H]2c2ccc(F)cc2)cc1C(F)(F)F [Example 85, 4-((3S,3aS)-3-(4-fluorophenyl)-7-hydroxy-3,3a,4,5-tetrahydrobenzo[g]indazol-2-yl)-2-(trifluoromethyl)benzonitrile] | > 1 |

More lines, now with the values ahead:

| IC50 [µM] | SMILES |
| --- | --- |
| 0.13 | N#Cc1ccc(N2N=C3c4ccc(C(=O)O)cc4OCC3C2C2CCCC2)cc1C(F)(F)F (racemic) [Example 69, (±)-(3RS,3aRS)-2-[4-cyano-3-(trifluoromethyl)phenyl]-3-cyclopentyl-2,3,3a,4-tetrahydrochromeno[4,3-c]pyrazole-7-carboxylic acid] |
| 0.205 | N#Cc1ccc(N2N=C3c4ccc(C(=O)O)cc4CCC3C2C2=CCCC2)cc1 (racemic) [Example 50, 2-(4-cyanophenyl)-3-cyclopent-1-en-1-yl-3,3a,4,5-tetrahydro-2H-benzo[g]indazole-7-carboxylic acid] |
| 3.18 | N#Cc1ccc(N2N=C3c4ccc(C(=O)O)cc4OCC3C2c2ccc(F)cc2)cc1 (racemic) [Example 58, 2-(4-cyanophenyl)-3-(4-fluorophenyl)-2,3,3a,4-tetrahydrochromeno[4,3-c]pyrazole-7-carboxylic acid] |
| 0.052 | N#Cc1ccc(N2N=C3c4ccc(C(=O)O)cc4OCC3C2C2CCCC2)cc1C(F)(F)F (racemic) [Example 68, (±)-(3RS,3aSR)-2-[4-cyano-3-(trifluoromethyl)phenyl]-3-cyclopentyl-2,3,3a,4-tetrahydrochromeno[4,3-c]pyrazole-7-carboxylic acid] |
| 3.35 | N#Cc1ccc(N2N=C3c4ccc(C(=O)O)cc4OC[C@H]3[C@H]2C2CCCC2)cc1Cl [Example 66, (3R,3aS)-2-(3-chloro-4-cyanophenyl)-3-cyclopentyl-2,3,3a,4-tetrahydrochromeno[4,3-c]pyrazole-7-carboxylic acid] |
| 0.535 | O=C(O)c1ccc2c(c1)CCC1C2=NN(c2ccc3c(c2)CCNC3=O)C1c1ccc(F)cc1 (racemic) [Example 13, 3-(4-fluorophenyl)-2-(1-oxo-1,2,3,4-tetrahydroisoquinolin-6-yl)-3,3a,4,5-tetrahydro-2H-benzo[g]indazole-7-carboxylic acid] |
| 1.55 | N#Cc1ccc(N2N=C3c4cc(C(=O)NCCN5CCCC5)ccc4CC[C@@H]3[C@@H]2c2ccc(F)cc2)cc1Cl (racemic) [Example 112, (±)-(3RS13aRS)-2-(3-chloro-4-cyanophenyl)-3-(4-fluorophenyl)-N-(2-(pyrrolidin-1-yl)ethyl)-3,3a,4,5-tetrahydro-2H-benzo[g]indazole-8-carboxamide] |
| 0.711 | Cc1cc(N2N=C3c4ccc(C(=O)O)cc4OCC3C2C2CC2)ccc1C#N (racemic) [Example 75, 2-(4-cyano-3-methylphenyl)-3-cyclopropyl-2,3,3a,4-tetrahydrochromeno[4,3-c]pyrazole-7-carboxylic acid] |
| 0.007 | Cc1cc(N2N=C3c4ccc(C(=O)O)cc4CCC3C2C2=CCCC2)ccc1C#N (racemic) [Example 51, 2-(4-cyano-3-methylphenyl)-3-cyclopentenyl-3,3a,4,5-tetrahydro-2H-benzo[g]indazole-7-carboxylic acid] |
| > 1 | N#Cc1ccc(N2N=C3c4ccc(C(=O)O)cc4OCC3C2C2CC2)cc1Cl (racemic) [Example 76, 2-(3-chloro-4-cyanophenyl)-3-cyclopropyl-2,3,3a,4-tetrahydrochromeno[4,3-c]pyrazole-7-carboxylic acid] |
| 0.72 | N#Cc1ccc(N2N=C3c4ccc(C(=O)O)cc4CCC3C2C2CCOC2)cc1Cl (racemic) [Example 34, 2-(3-chloro-4-cyanophenyl)-3-((R)-tetrahydrofuran-3-yl)-3,3a,4,5-tetrahydro-2H-benzo[g]indazole-7-carboxylic acid and 2-(3-chloro-4-cyanophenyl)-3-((S)-tetrahydrofuran-3-yl)-3,3a,4,5-tetrahydro-2H-benzo[g]indazole-7-carboxylic acid] |
| 0.523 | CCN(CC)CCN(CCN(CC)CC)C(=O)c1ccc2c(c1)CC[C@H]1C2=NN(c2ccc(C#N)c(Cl)c2)[C@H]1c1ccc(F)cc1 (racemic) [Example 107, (±)-(3RS,3aRS)-2-(3-chloro-4-cyanophenyl)-N,N-bis(2-(diethylamino)ethyl)-3-(4-fluorophenyl)-3,3a,4,5-tetrahydro-2H-benzo[g]indazole-7-carboxamide bistrifluoroacetate] |
| 0.849 | N#Cc1ccc(N2N=C3c4ccc(C(=O)O)cc4OCC3C2c2ccc(F)cc2)cc1Cl (racemic) [Example 55, 2-(3-chloro-4-cyanophenyl)-3-(4-fluorophenyl)-2,3,3a,4-tetrahydrochromeno[4,3-c]pyrazole-7-carboxylic acid] |
